According to patent publication US9012454B2, “Sexual dysfunction” (Mayo Foundation for Medical Education and Research, priority 2005, dated 2015):

Assays:
LZ+ MYPT1 isoform = assay: Western blot of relative LZ+ MYPT1 isoform expression in vascular smooth muscle after LAD ligation; assay type: in vivo, rat; settings: for LZ+ MYPT1 isoform expression in aorta (in words) / LZ+ MYPT1 isoform expression in iliac artery (in words): captopril 2-8 weeks, prazosin 4 weeks
[1] = tested on: surgical infarct model of CHF; assay: Transthoracic echocardiography in surgical infarct (LAD ligation) model of CHF; assay type: in vivo, rat; settings: for fractional shortening (FS): 4 weeks after surgery, captopril 100 mg/kg/day or prazosin 2 mg/kg/day, mean±SEM
Description: Adult male Sprague-Dawley rats (Harlan, Indianapolis, Ind.) weighing 400-450 grams were put under general anesthesia by intraperitoneal injection with a mixture (3:3:2) of ketamine (100 mg/mL), xylazine (20 mg/mL), and acepromazine (10 mg/mL). After intubation, the rats were ventilated continuously (room air) using a small animal ventilator (model 683, Harvard Apparatus, Holliston, Mass.). A left lateral thoracotomy incision was made along the 5th intercostal space. After the pericardium was opened, the heart was exteriorized using a retention suture placed at the apex. The left anterior descending coronary artery (LAD) was ligated twice using 6-0 prolene suture (Ethicon, Piscataway, N.J.). After chest closure with running 3-0 vicryl suture (Ethicon), rats were placed in a recovery chamber with a heating pad and a warming light.
Beginning on post-operative day one, rats were allowed to drink ad libitum. One group was fed water with captopril (2 g/L), and another group was fed water alone (Pfeffer et al., Circ. Res., 57:84-95 (1985)). The rats were fed a standard diet of Teklad rodent feed (Harlan) ad libitum and kept on a 12:12 hour light-dark cycle. In both the captopril- and the placebo-treated group, the rats were sacrificed at designated time intervals of 2 weeks and then 4, 6, and 8 weeks after surgery. On average, the rats drank approximately 20 mL of water daily, which corresponded to a dose of 100 mg/kg/day of captopril.
All rats in the placebo- and captopril-treated groups underwent transthoracic echocardiography (Acuson Sequoia C256® Echocardiography System, Siemens Medical Solutions USA, Inc., Malvern, Pa.) at baseline prior to LAD ligation and at 2, 4, 6, and 8 weeks after LAD ligation using 2-D digital loop imaging under conscious sedation with vaporized isoflurane as described previously (Karim et al., Circ. Res., 95:612-18 (2004); Morgan et al., Am. J. Physiol. Heart Circ. Physiol., 287:H2049-H2053 (2004)). […] Both parasternal long and short axis views were obtained using a 13-MHz linear array transducer. Digital calipers were used to measure end systolic dimension (ESD) and end diastolic dimension (EDD). Cardiac function was estimated using fractional shortening (FS) obtained from the EDD and ESD in the parasternal long axis view and calculated as FS=((EDD−ESD)/EDD)×100%.
The echocardiographic data were reported as mean±SEM.

| Compound | LZ+ MYPT1 isoform expression in the aorta (fall versus uninfarcted control) (LZ+ MYPT1 isoform; aorta, 4 weeks after infarction, placebo 44±1%, P<0.05) [%] | LZ+ MYPT1 isoform expression in the iliac artery (fall versus uninfarcted control) (LZ+ MYPT1 isoform; iliac artery, 4 weeks after infarction, placebo 52±2%, P=0.87) [%] | LZ+ MYPT1 isoform expression in aorta (in words) (LZ+ MYPT1 isoform; infarct rats, aorta) | LZ+ MYPT1 isoform expression in iliac artery (in words) (LZ+ MYPT1 isoform; infarct rats, iliac artery) | fractional shortening (FS) ([1]; infarct rats) [%] | LZ+ MYPT1 isoform expression in portal vein (in words) (LZ+ MYPT1 isoform; infarct rats, portal vein, all time intervals) | effect on fractional shortening / left ventricular function (LVF) ([1]; infarct rats versus placebo, captopril as early as 2 weeks post-infarction, prazosin at 4 weeks) | end systolic dimension (ESD) compared to placebo ([1]; infarct rats, all time-points (2, 4, 6, 8 weeks), P<0.05) |
| --- | --- | --- | --- | --- | --- | --- | --- | --- |
| COc1cc2nc(N3CCN(C(=O)c4ccco4)CC3)nc(N)c2cc1OC [prazosin] | 68±1 | 54±2 | did not prevent the fall | did not prevent the fall | 38±2 |  |  |  |
| C[C@H](CS)C(=O)N1CCC[C@H]1C(=O)O [captopril] |  |  | preserved at the uninfarcted control level | preserved at the level of the uninfarcted control smooth muscle | 45±1 | remained low | attenuated the fall in FS and improved left ventricular function | reduced the ESD |
